PMC3864132 (Cancer immunology, immunotherapy : CII, 2013)

How the values were obtained:
HHD×ERG^pb/pb mice = conditions: mouse, in vivo; SD
HHD mice = conditions: mean from 3 mice ± SD
[1] = tested on: metastatic melanoma patients; conditions: in combination with IL-2, metastatic melanoma patients; cited from earlier work

| Substance | ERG295 responsive T-cells (HHD×ERG^pb/pb mice) | ERG295 responsive cells per million splenocytes (HHD×ERG^pb/pb mice) | ERG295 responsive cells per million splenocytes (HHD mice; HHD mice around 16 weeks old, 1 immunization) | ERG295 responsive T-cells (HHD mice; HHD mice, 3 immunizations at 7-day intervals) | Median overall survival [1] |
| --- | --- | --- | --- | --- | --- |
| QLWQFLLEL [ERG295] | 305 ± 49 | 177 ± 51 per million splenocytes | 275 ± 45 per million splenocytes | 405 ± 120 |  |
| gp100:209:217(210M): HLA-A*0201 restricted melanoma epitope (IMDQVPFSV; UniProt P40967 209-217, looked up, variant T210M) |  |  |  |  | significantly improved median overall survival |
